Test results taken from the NIST ThermoML archive (doi:10.1021/je049672l).
± gives the expanded uncertainty stated by the source.

Conditions: for mass density: Vibrating tube method; for vapor or sublimation pressure: Closed cell (Static) method

CCC [propane]
Fluid (supercritical or subcritical phases)
Conditions	mass density [kg/m3]
240 K, 527.3 kPa	570.78 ± 0.27
240 K, 1044.8 kPa	571.46 ± 0.28
240 K, 1522.4 kPa	572.08 ± 0.29
240 K, 1978.3 kPa	572.68 ± 0.29
240 K, 2477.9 kPa	573.32 ± 0.3
240 K, 2999.9 kPa	573.98 ± 0.3
240 K, 3513 kPa	574.62 ± 0.31
240 K, 4045.7 kPa	575.29 ± 0.31
240 K, 4504.5 kPa	575.85 ± 0.32
240 K, 4957.8 kPa	576.41 ± 0.32
240 K, 5475.7 kPa	577.04 ± 0.33
240 K, 6018.3 kPa	577.69 ± 0.33
240 K, 6523.2 kPa	578.3 ± 0.34
240 K, 7043.3 kPa	578.91 ± 0.35
250 K, 513.8 kPa	558.73 ± 0.28
250 K, 1008.1 kPa	559.47 ± 0.28
250 K, 1508.3 kPa	560.2 ± 0.29
250 K, 2008.3 kPa	560.93 ± 0.29
250 K, 2524.1 kPa	561.67 ± 0.3
250 K, 3016.9 kPa	562.38 ± 0.3
250 K, 3503.7 kPa	563.05 ± 0.31
250 K, 3993.1 kPa	563.74 ± 0.32
250 K, 4478.5 kPa	564.4 ± 0.32
250 K, 5045.1 kPa	565.17 ± 0.33
250 K, 5495.4 kPa	565.78 ± 0.33
250 K, 5999.9 kPa	566.46 ± 0.34
250 K, 6543.5 kPa	567.17 ± 0.35
250 K, 7010.3 kPa	567.78 ± 0.35
260 K, 506.6 kPa	546.1 ± 0.28
260 K, 1013.8 kPa	546.96 ± 0.29
260 K, 1503.5 kPa	547.77 ± 0.29
260 K, 1999.7 kPa	548.6 ± 0.3
260 K, 2504.5 kPa	549.42 ± 0.3
260 K, 3012.1 kPa	550.24 ± 0.31
260 K, 3513.3 kPa	551.04 ± 0.31
260 K, 4020 kPa	551.84 ± 0.32
260 K, 4498.9 kPa	552.58 ± 0.33
260 K, 5014.5 kPa	553.38 ± 0.33
260 K, 5513.9 kPa	554.12 ± 0.34
260 K, 6028.2 kPa	554.89 ± 0.34
260 K, 6522.8 kPa	555.62 ± 0.35
260 K, 7048.9 kPa	556.4 ± 0.36
270 K, 504.7 kPa	532.93 ± 0.28
270 K, 1012.9 kPa	533.91 ± 0.29
270 K, 1510.4 kPa	534.87 ± 0.3
270 K, 2005.4 kPa	535.83 ± 0.3
270 K, 2499.6 kPa	536.75 ± 0.31
270 K, 3017.5 kPa	537.7 ± 0.31
270 K, 3497.1 kPa	538.57 ± 0.32
270 K, 4018.8 kPa	539.5 ± 0.33
270 K, 4488.2 kPa	540.32 ± 0.33
270 K, 5023.8 kPa	541.26 ± 0.34
270 K, 5504.7 kPa	542.05 ± 0.34
270 K, 6021.1 kPa	542.91 ± 0.35
270 K, 6525.8 kPa	543.74 ± 0.36
270 K, 7024.1 kPa	544.55 ± 0.36
280 K, 1000 kPa	520.1 ± 0.29
280 K, 1466.1 kPa	521.15 ± 0.3
280 K, 1964.2 kPa	522.28 ± 0.31
280 K, 2513 kPa	523.49 ± 0.31
280 K, 3032.9 kPa	524.61 ± 0.32
280 K, 3519.3 kPa	525.6 ± 0.32
280 K, 4049.7 kPa	526.68 ± 0.33
280 K, 4527.5 kPa	527.65 ± 0.34
280 K, 4963.1 kPa	528.5 ± 0.34
280 K, 5443.4 kPa	529.45 ± 0.35
280 K, 5982.8 kPa	530.51 ± 0.36
280 K, 6522.6 kPa	531.56 ± 0.36
280 K, 7034.7 kPa	532.51 ± 0.37
290 K, 1499.4 kPa	506.71 ± 0.3
290 K, 2004.4 kPa	508.04 ± 0.31
290 K, 2510 kPa	509.33 ± 0.32
290 K, 2998.9 kPa	510.56 ± 0.32
290 K, 3484 kPa	511.74 ± 0.33
290 K, 4018.1 kPa	513.03 ± 0.34
290 K, 4476.9 kPa	514.12 ± 0.34
290 K, 5036.3 kPa	515.41 ± 0.35
290 K, 5531.4 kPa	516.52 ± 0.36
290 K, 5957.4 kPa	517.46 ± 0.36
290 K, 6525.4 kPa	518.7 ± 0.37
290 K, 7049.2 kPa	519.81 ± 0.38
300 K, 1517.7 kPa	491.19 ± 0.3
300 K, 2015.2 kPa	492.77 ± 0.31
300 K, 2519.2 kPa	494.32 ± 0.32
300 K, 3032.3 kPa	495.86 ± 0.33
300 K, 3486.3 kPa	497.18 ± 0.33
300 K, 4036.8 kPa	498.73 ± 0.34
300 K, 4462.1 kPa	499.91 ± 0.35
300 K, 4937 kPa	501.23 ± 0.35
300 K, 5518.9 kPa	502.75 ± 0.36
300 K, 6063.5 kPa	504.2 ± 0.37
300 K, 6496.7 kPa	505.29 ± 0.37
300 K, 7004.4 kPa	506.54 ± 0.38
310 K, 1514.4 kPa	473.96 ± 0.3
310 K, 2018.8 kPa	475.98 ± 0.31
310 K, 2491.2 kPa	477.78 ± 0.31
310 K, 3012.9 kPa	479.7 ± 0.32
310 K, 3515 kPa	481.48 ± 0.33
310 K, 4040.6 kPa	483.29 ± 0.33
310 K, 4528.9 kPa	484.91 ± 0.34
310 K, 5029.4 kPa	486.52 ± 0.35
310 K, 5529.3 kPa	488.08 ± 0.36
310 K, 6046.3 kPa	489.64 ± 0.37
310 K, 6510.1 kPa	491.02 ± 0.37
310 K, 6991.8 kPa	492.41 ± 0.38
320 K, 2011.4 kPa	457.17 ± 0.3
320 K, 2513.8 kPa	459.66 ± 0.31
320 K, 3002.1 kPa	461.96 ± 0.31
320 K, 3495.1 kPa	464.17 ± 0.32
320 K, 4025.8 kPa	466.44 ± 0.33
320 K, 4519.6 kPa	468.46 ± 0.34
320 K, 5017.9 kPa	470.44 ± 0.34
320 K, 5536.8 kPa	472.4 ± 0.35
320 K, 6024.8 kPa	474.19 ± 0.36
320 K, 6523.4 kPa	475.95 ± 0.37
320 K, 7008.9 kPa	477.63 ± 0.37
330 K, 2033.9 kPa	435.23 ± 0.3
330 K, 2537.4 kPa	438.74 ± 0.3
330 K, 3032 kPa	441.91 ± 0.31
330 K, 3546.3 kPa	445 ± 0.31
330 K, 3909.1 kPa	447.05 ± 0.32
330 K, 3995.4 kPa	447.53 ± 0.32
330 K, 4495.8 kPa	450.17 ± 0.33
330 K, 4996.1 kPa	452.66 ± 0.33
330 K, 5488.6 kPa	455.01 ± 0.34
330 K, 6010.6 kPa	457.38 ± 0.35
330 K, 6499.8 kPa	459.5 ± 0.36
330 K, 6985.1 kPa	461.52 ± 0.37
340 K, 3024.2 kPa	417.87 ± 0.3
340 K, 3507.8 kPa	422.07 ± 0.31
340 K, 4014 kPa	426.05 ± 0.31
340 K, 4501.8 kPa	429.56 ± 0.32
340 K, 5027.1 kPa	433.06 ± 0.33
340 K, 5516.7 kPa	436.1 ± 0.33
340 K, 5985 kPa	438.83 ± 0.34
340 K, 6494.7 kPa	441.64 ± 0.35
340 K, 6964.1 kPa	444.1 ± 0.36
350 K, 3541.2 kPa	393.49 ± 0.31
350 K, 4011.9 kPa	399.51 ± 0.3
350 K, 4505.9 kPa	404.94 ± 0.31
350 K, 5024.8 kPa	409.94 ± 0.32
350 K, 5521.6 kPa	414.24 ± 0.33
350 K, 6027.1 kPa	418.22 ± 0.33
350 K, 6491.4 kPa	421.59 ± 0.34
350 K, 6978.1 kPa	424.88 ± 0.35
360 K, 4043.5 kPa	362.08 ± 0.31
360 K, 4527.8 kPa	372.52 ± 0.3
360 K, 5043 kPa	380.99 ± 0.31
360 K, 5524.7 kPa	387.51 ± 0.31
360 K, 6048.5 kPa	393.63 ± 0.32
360 K, 6529.9 kPa	398.56 ± 0.33
360 K, 6953.8 kPa	402.5 ± 0.34
370 K, 779.8 kPa	11.91 ± 0.2
370 K, 1089.1 kPa	17.21 ± 0.2
370 K, 1515.9 kPa	25.15 ± 0.2
370 K, 2081.6 kPa	37.08 ± 0.21
370 K, 2783.7 kPa	55.36 ± 0.22
370 K, 4325.4 kPa	287.46 ± 0.3
370 K, 4521.7 kPa	312.65 ± 0.3
370 K, 4996.9 kPa	336.94 ± 0.29
370 K, 5527.4 kPa	352.01 ± 0.3
370 K, 5998 kPa	361.65 ± 0.31
370 K, 6504.8 kPa	369.98 ± 0.32
370 K, 7066.4 kPa	377.66 ± 0.33
380 K, 813.8 kPa	12.27 ± 0.2
380 K, 1223.8 kPa	19.12 ± 0.2
380 K, 1564.3 kPa	25.22 ± 0.2
380 K, 2032 kPa	34.39 ± 0.21
380 K, 2630.4 kPa	47.9 ± 0.21
380 K, 3340.1 kPa	67.96 ± 0.22
380 K, 4059 kPa	97.16 ± 0.24
380 K, 4059.9 kPa	97.18 ± 0.24
380 K, 4060.6 kPa	97.22 ± 0.24
380 K, 4556.5 kPa	131.82 ± 0.29
380 K, 5335.4 kPa	273.87 ± 0.34
380 K, 5530.3 kPa	291.64 ± 0.29
380 K, 6044.5 kPa	318.37 ± 0.3
380 K, 6541.5 kPa	333.99 ± 0.3
380 K, 7012.1 kPa	344.89 ± 0.31

Liquid
Conditions	mass density [kg/m3]	vapor or sublimation pressure [kPa]
240 K	570.28 ± 0.27	147.9 ± 0.6
250 K	558.29 ± 0.27	217.7 ± 0.6
260 K	545.77 ± 0.28	310.3 ± 0.7
270 K	532.67 ± 0.28	429.6 ± 0.8
290 K	504.75 ± 0.29	768.6 ± 1.2
300 K	489.48 ± 0.29	997.6 ± 1.6
310 K	472.96 ± 0.28	1272.1 ± 2
320 K	455 ± 0.28	1600.7 ± 2.5
330 K	434.9 ± 0.27	1988.8 ± 3.1
340 K	411.92 ± 0.27	2429.7 ± 3.8
350 K	384.39 ± 0.26	2948 ± 4.6
360 K	347.97 ± 0.25	3552.2 ± 5.5
